According to patent US12065444B2, “Substituted tetrazolo[1,5-a]pyrazines and tetrazolo[1,5-c]pyrimidines as adenosine receptor antagonists” (Crossignal Therapeutics, Inc., priority 2021, dated 2024):

Tests used:
[1] = biological target: T1, human adenosine A2b receptor (Homo sapiens, UniProt P29275); assay: Adenosine A2b receptor whole cell cyclic AMP assay; conditions: for inhibition at 10 µM: HEK293, 1 h, read-out: A2b @ 10 μM Adenosine (A2b cAMP IC50)
T1 sequence (P29275 1-332): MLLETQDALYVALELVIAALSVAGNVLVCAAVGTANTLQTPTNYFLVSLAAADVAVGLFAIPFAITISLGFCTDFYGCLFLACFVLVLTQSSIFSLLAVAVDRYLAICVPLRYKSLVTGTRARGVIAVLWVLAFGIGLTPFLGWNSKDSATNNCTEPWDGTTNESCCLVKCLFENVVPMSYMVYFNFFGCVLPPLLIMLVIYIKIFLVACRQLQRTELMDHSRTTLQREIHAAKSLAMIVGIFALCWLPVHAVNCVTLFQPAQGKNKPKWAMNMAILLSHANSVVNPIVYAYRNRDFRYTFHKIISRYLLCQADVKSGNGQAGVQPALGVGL

[2] = biological target: human adenosine A2a receptor (Homo sapiens, UniProt P29274); assay: Adenosine A2a receptor whole cell cyclic AMP assay; conditions: for inhibition at 10 µM: HEK293, 1 h, read-out: A2a @ 100 μM Adenosine (A2a cAMP IC50)
[3] = A2a @ 1 μM Adenosine (A2a cAMP IC50), HEK293 cells stably expressing human A2a, 1 μM adenosine, 1 hour compound treatment
[4] = A2a @ 100 μM Adenosine (A2a cAMP IC50), HEK293 cells stably expressing human A2a, 100 μM adenosine, 1 hour compound treatment

human adenosine A2a receptor, sequence (P29274 whole entry): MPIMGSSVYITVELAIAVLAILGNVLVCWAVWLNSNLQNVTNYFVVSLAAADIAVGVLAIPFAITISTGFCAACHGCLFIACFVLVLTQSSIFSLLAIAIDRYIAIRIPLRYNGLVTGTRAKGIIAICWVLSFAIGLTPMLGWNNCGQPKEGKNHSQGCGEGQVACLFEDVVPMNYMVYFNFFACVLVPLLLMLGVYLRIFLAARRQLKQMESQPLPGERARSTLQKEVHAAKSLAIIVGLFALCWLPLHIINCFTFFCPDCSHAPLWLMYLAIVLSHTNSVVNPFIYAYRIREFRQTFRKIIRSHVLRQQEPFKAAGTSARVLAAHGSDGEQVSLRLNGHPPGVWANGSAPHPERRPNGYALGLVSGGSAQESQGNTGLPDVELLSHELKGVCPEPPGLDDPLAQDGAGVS

SMILES | IC50 [2, 3] [nM] | IC50 [2, 4] [nM] | further results
Cc1c(C#N)cccc1-c1cc(-c2cn(Cc3cccc(C(C)(C)O)n3)nn2)nc(N)n1 [AB928, reference compound] | 100 to 1000 | > 1000 | IC50 [1]: > 1000 nM
Cc1ccc(-c2nc(N)nc3c2nnn3Cc2cccc(CO[C@H]3CCOC3)n2)o1 [CPI-444, reference compound] |  |  | inhibition at 10 µM [1]: < 25%; A2a @ 100 μM Adenosine (A2a cAMP IC50) ([2]; HEK293 cells stably expressing human A2a, 100 μM adenosine, 1 hour compound treatment, 10 µM): NR (“NR” indicates A2a or A2b mean inhibition is <25% at the top concentration)
Cc1ccnc2ccc(-c3c(-c4ccc(F)cc4F)nc(N)c4nnnn34)cc12 [1-43, 6-(2,4-difluorophenyl)-5-(4-methylquinolin-6-yl)tetrazolo[1,5-a]pyrazin-8-amine] | < 100 |  | inhibition at 10 µM [1]: < 25%; inhibition at 10 µM [2]: < 25%
Nc1nc(-c2ccc(F)cc2)c(-c2cc(Cl)nc(C(F)(F)F)c2)c2nnnn12 [1-34, 8-(2-chloro-6-(trifluoromethyl)pyridin-4-yl)-7-(4-fluorophenyl)tetrazolo[1,5-c]pyrimidin-5-amine] | 100 to 1000 | > 1000 | inhibition at 10 µM [1]: < 25%
Nc1nc(-c2ccc(F)cc2)c(-c2ccc3ncc(CO)n3c2)n2nnnc12 [1-20, (6-(8-amino-6-(4-fluorophenyl)tetrazolo[1,5-a]pyrazin-5-yl)imidazo[1,2-a]pyridin-3-yl)methanol] | < 100 | > 1000 | IC50 [1]: 100 to 1000 nM
Cc1ccnc2ccc(-c3c(-c4ccc(F)cc4)nc(N)c4nnnn34)cc12 [1-6, 6-(4-fluorophenyl)-5-(4-methylquinolin-6-yl)tetrazolo[1,5-a]pyrazin-8-amine] | < 100 |  | inhibition at 10 µM [1]: < 25%
Cn1cnc2ccc(-c3c(-c4ccc(F)cc4)nc(N)c4nnnn34)cc21 [1-13, 6-(4-fluorophenyl)-5-(1-methyl-1H-benzo[d]imidazol-6-yl)tetrazolo[1,5-a]pyrazin-8-amine] | < 100 | 100 to 1000 | IC50 [1]: 100 to 1000 nM
Cc1ccnc2ccc(-c3c(-c4ccc(F)cc4)nc(N)n4nnnc34)cc12 [1-36, 7-(4-fluorophenyl)-8-(4-methylquinolin-6-yl)tetrazolo[1,5-c]pyrimidin-5-amine] | < 100 |  | IC50 [1]: 100 to 1000 nM
COc1ccc(-c2nc(N)n3nnnc3c2-c2ccc3ncc(C)n3c2)cc1 [1-57, 7-(4-methoxyphenyl)-8-(3-methylimidazo[1,2-a]pyridin-6-yl)tetrazolo[1,5-c]pyrimidin-5-amine] | 100 to 1000 | > 1000 | IC50 [1]: 100 to 1000 nM
Cc1cnc2ccc(-c3c(-c4ccc(F)cc4)nc(N)n4nnnc34)cn12 [1-25, 7-(4-fluorophenyl)-8-(3-methylimidazo[1,2-a]pyridin-6-yl)tetrazolo[1,5-c]pyrimidin-5-amine] | < 100 | 100 to 1000 | IC50 [1]: 100 to 1000 nM
COc1ccc(-c2nc(N)c3nnnn3c2-c2ccc3ncc(C)n3c2)cc1 [1-56, 6-(4-methoxyphenyl)-5-(3-methylimidazo[1,2-a]pyridin-6-yl)tetrazolo[1,5-a]pyrazin-8-amine] | 100 to 1000 | > 1000 | 
Nc1nc(-c2ccc(F)cc2)c(-c2ccc3ncc(Cl)n3c2)n2nnnc12 [1-23, 5-(3-chloroimidazo[1,2-a]pyridin-6-yl)-6-(4-fluorophenyl)tetrazolo[1,5-a]pyrazin-8-amine] | < 100 |  | 
Nc1nc(-c2ccc(F)cc2)c(-c2ccc3nccn3c2)n2nnnc12 [1-9, 6-(4-fluorophenyl)-5-(imidazo[1,2-a]pyridin-6-yl)tetrazolo[1,5-a]pyrazin-8-amine] | 100 to 1000 |  | inhibition at 10 µM [2]: < 25%
Nc1nc(-c2ccc(F)cc2)c(-c2ccc3ncc(C(F)F)n3c2)n2nnnc12 [1-48, 5-(3-(difluoromethyl)imidazo[1,2-a]pyridin-6-yl)-6-(4-fluorophenyl)tetrazolo[1,5-a]pyrazin-8-amine] | 100 to 1000 | 100 to 1000 | IC50 [1]: 100 to 1000 nM
Cc1cnc2ccc(-c3c(-c4ccc(F)cc4)nc(N)c4nnnn34)cn12 [1-7, 6-(4-fluorophenyl)-5-(3-methylimidazo[1,2-a]pyridin-6-yl)tetrazolo[1,5-a]pyrazin-8-amine] | < 100 | 100 to 1000 | IC50 [1]: 100 to 1000 nM
COc1ccc(-c2nc(N)c3nnnn3c2-c2ccc3nccc(C)c3c2)cc1 [1-38, 6-(4-methoxyphenyl)-5-(4-methylquinolin-6-yl)tetrazolo[1,5-a]pyrazin-8-amine] | 100 to 1000 |  | inhibition at 10 µM [1]: < 25%
Cc1ccnc2ccc(-c3c(-c4ccccc4C#N)nc(N)c4nnnn34)cc12 [1-49, 2-(8-amino-5-(4-methylquinolin-6-yl)tetrazolo[1,5-a]pyrazin-6-yl)benzonitrile] | 100 to 1000 |  | 
Nc1nc(-c2ccc(F)cc2)c(-c2ccc3ncsc3c2)n2nnnc12 [1-12, 5-(benzo[d]thiazol-6-yl)-6-(4-fluorophenyl)tetrazolo[1,5-a]pyrazin-8-amine] | 100 to 1000 |  | inhibition at 10 µM [2]: < 25%
Nc1nc(-c2ccc(F)cc2)c(-c2ccc3nccc(Cl)c3c2)c2nnnn12 [1-35, 8-(4-chloroquinolin-6-yl)-7-(4-fluorophenyl)tetrazolo[1,5-c]pyrimidin-5-amine] | < 100 |  | 
Cc1cc(-c2c(-c3ccc(F)cc3)nc(N)c3nnnn23)cc(C(F)F)n1 [1-54, 5-(2-(difluoromethyl)-6-methylpyridin-4-yl)-6-(4-fluorophenyl)tetrazolo[1,5-a]pyrazin-8-amine] | 100 to 1000 |  | inhibition at 10 µM [2]: < 25%
Nc1nc(-c2ccc(F)cc2)c(-c2cc(Cl)nc(C(F)(F)F)c2)n2nnnc12 [1-55, 5-(2-chloro-6-(trifluoromethyl)pyridin-4-yl)-6-(4-fluorophenyl)tetrazolo[1,5-a]pyrazin-8-amine] | 100 to 1000 |  | inhibition at 10 µM [2]: < 25%
Cc1ccnc2ccc(-c3c(-c4ccccc4Cl)nc(N)c4nnnn34)cc12 [1-45, 6-(2-chlorophenyl)-5-(4-methylquinolin-6-yl)tetrazolo[1,5-a]pyrazin-8-amine] | 100 to 1000 |  | 
Nc1nc(-c2ccc(F)cc2)c(-c2ccc3ncccc3c2)n2nnnc12 [1-11, 6-(4-fluorophenyl)-5-(quinolin-6-yl)tetrazolo[1,5-a]pyrazin-8-amine] | < 100 |  | inhibition at 10 µM [2]: < 25%
Cc1ccnc2ccc(-c3c(-c4ccc(C#N)cc4)nc(N)c4nnnn34)cc12 [1-44, 4-(8-amino-5-(4-methylquinolin-6-yl)tetrazolo[1,5-a]pyrazin-6-yl)benzonitrile] | < 100 |  | 
COc1cc(-c2c(-c3ccc(F)cc3)nc(N)c3nnnn23)cc2cccnc12 [1-5, 6-(4-fluorophenyl)-5-(8-methoxyquinolin-6-yl)tetrazolo[1,5-a]pyrazin-8-amine] | 100 to 1000 |  | 
Cc1cc(-c2c(-c3ccc(F)cc3)nc(N)c3nnnn23)cc(Cl)n1 [1-1, 5-(2-chloro-6-methylpyridin-4-yl)-6-(4-fluorophenyl)tetrazolo[1,5-a]pyrazin-8-amine] | 100 to 1000 |  | 
Cc1cc(-c2c(-c3ccc(F)cc3)nc(N)n3nnnc23)cc(C)n1 [1-28, 8-(2,6-dimethylpyridin-4-yl)-7-(4-fluorophenyl)tetrazolo[1,5-c]pyrimidin-5-amine] | < 100 |  | inhibition at 10 µM [2]: < 25%
Nc1nc(-c2ccc(F)cc2)c(-c2ccc3ncoc3c2)n2nnnc12 [1-10, 5-(benzo[d]oxazol-6-yl)-6-(4-fluorophenyl)tetrazolo[1,5-a]pyrazin-8-amine] | 100 to 1000 |  | 
